Measured values reported in US10285944B2 (ALFASIGMA S.P.A., priority 2005, dated 2019).

Assays:
[1] = tested on: Crohn's patients characterized by a protein C reactive value higher than normal; test: Crohn's patients with protein C reactive value higher than normal (subgroup of the trial); format: in vivo, human; conditions: subgroup with protein C value higher than normal values; 16 patients treated with rifaximin
[2] = tested on: patients affected by Crohn's disease; test: Clinical multi-center randomised trial versus placebo in Crohn's disease; format: in vivo, human; conditions: 27 patients
Description: 55 Crohn's disease patients in acute, mild to moderate grade, phase, having CDAI (Crohn Disease Active Index) value between 200 and 300, have been recruited. The primary end point was represented by the percentage of the patients in clinic remission defined as CDAI lower than 150 points at the end of the study. The patients, randomised in two groups: group A, of 27 patients and group B of 28 patients, have been treated for 12 weeks according to the following therapeutic schemes:
Group B: placebo, administrated 2 times in a day in a such quantity to correspond to the content of the dose of the active principle.

[3] = depending on the dose and the treatment duration; cited from earlier work
[4] = CDAI lower than 150 after 12 weeks, rifaximin 800 mg 2 times a day (preparation of example 3)

SMILES	Number of clinical remission [1]	clinical remission, percentage of the patients [1]	therapeutic failure, percentage of the patients [1]	therapeutic failure, percentage of the patients ([2]; 12 weeks, rifaximin 800 mg 2 times a day)	Number of clinical remission [2, 4]	clinical remission, percentage of the patients [2, 4]	incidence of side effects [3]
CO[C@H]1/C=C/O[C@@]2(C)Oc3c(C)c(O)c4c(O)c(c5c(nc6cc(C)ccn65)c4c3C2=O)NC(=O)/C(C)=C\C=C\[C@H](C)[C@H](O)[C@@H](C)[C@@H](O)[C@@H](C)[C@H](OC(C)=O)[C@@H]1C [rifaximin]	10	(62.5%)	(0%)	(3.4%)	14	(51.9%)	
Cc1ncc([N+](=O)[O-])n1CCO [metronidazole]							10-20%
